Laboratory results reported in patent US20210115047A1, “CDPK1 INHIBITORS, COMPOSITIONS AND METHODS RELATED THERETO” (Vyera Pharmaceutical, LLC, priority 2017, published 2021).

biological target: T1, T. gondii CDPK1 (tgCDPK1) (Toxoplasma gondii, UniProt Q9BJF5); assay: Inhibition of T. gondii CDPK1 (tgCDPK1), IC50 determination; format: biochemical; conditions: at least three independent replicates per compound
T1 sequence (Q9BJF5 1-507): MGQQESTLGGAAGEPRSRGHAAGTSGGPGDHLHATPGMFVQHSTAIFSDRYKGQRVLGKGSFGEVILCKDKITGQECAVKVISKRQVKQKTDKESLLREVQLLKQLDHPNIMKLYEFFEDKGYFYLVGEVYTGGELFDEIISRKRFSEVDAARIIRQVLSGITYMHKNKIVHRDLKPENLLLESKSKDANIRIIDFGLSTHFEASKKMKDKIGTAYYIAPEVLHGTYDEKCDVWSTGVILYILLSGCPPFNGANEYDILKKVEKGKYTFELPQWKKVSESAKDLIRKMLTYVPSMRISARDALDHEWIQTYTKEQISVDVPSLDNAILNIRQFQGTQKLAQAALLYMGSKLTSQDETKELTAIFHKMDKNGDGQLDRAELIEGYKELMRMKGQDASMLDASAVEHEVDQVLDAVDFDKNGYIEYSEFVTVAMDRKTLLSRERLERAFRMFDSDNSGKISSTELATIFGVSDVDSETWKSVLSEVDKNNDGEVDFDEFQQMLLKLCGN
Description: Certain of the compounds prepared as described above were assayed to determine their IC50 for inhibition of T. gondii CDPK1 (tgCDPK1). At least three independent replicates of the assay were conducted for each compound tested.

SMILES	IC50 [nM]
Nc1ncnc2c1c(Cc1cc(F)cc(Cl)c1)nn2C1CC1 [Compound 4, 3-(3-chloro-5-fluorobenzyl)-1-cyclopropyl-1H-pyrazolo[3,4-d]pyrimidin-4-amine]	91.7
Nc1ncnc2c1c(Cc1cccc(-c3cncnc3)c1)nn2C1CC1 [Compound 10, 1-cyclopropyl-3-(3-(pyrimidin-5-yl)benzyl)-1H-pyrazolo[3,4-d]pyrimidin-4-amine]	373
Nc1ncnc2c1c(Cc1cccc(Cl)c1)nn2C1CCC1 [Compound 6, 3-(3-chlorobenzyl)-1-cyclobutyl-1H-pyrazolo[3,4-d]pyrimidin-4-amine]	8.7
Nc1ncnc2c1c(C(O)c1cccnc1)nn2C1CC1 (stereo not drawn) [Compound 18, (4-amino-1-cyclopropyl-1H-pyrazolo[3,4-d]pyrimidin-3-yl)(pyridin-3-yl)methanol]	4870
Nc1ncnc2c1c(C(O)c1ccccc1)nn2C1CC1 (stereo not drawn) [Compound 16, (4-amino-1-cyclopropyl-1H-pyrazolo[3,4-d]pyrimidin-3-yl)(phenyl)methanol]	1750
Nc1ncnc2c1c(Cc1cccc(-c3ccncc3)c1)nn2C1CC1 [Compound 11, 1-cyclopropyl-3-(3-(pyridin-4-yl)benzyl)-1H-pyrazolo[3,4-d]pyrimidin-4-amine]	1170
Nc1ncnc2c1c(Cc1cccc(F)c1)nn2C1CC1 [Compound 5, 1-cyclopropyl-3-(3-fluorobenzyl)-1H-pyrazolo[3,4-d]pyrimidin-4-amine]	25.3
Nc1ncnc2c1c(Cc1ccccc1)nn2C1CC1 [Compound 17, 3-benzyl-1-cyclopropyl-1H-pyrazolo[3,4-d]pyrimidin-4-amine]	25.4
Nc1ncnc2c1c(Cc1cccc(-c3ccccc3)c1)nn2C1CC1 [Compound 9, 3-([1,1′-biphenyl]-3-ylmethyl)-1-cyclopropyl-1H-pyrazolo[3,4-d]pyrimidin-4-amine]	26.3
